Assay results: patent US20230084927A1, “GLUCOSE UPTAKE INHIBITORS AND USES THEREOF” (METABOMED LTD., priority 2019, published 2023)
Like-named read-outs stand apart in the source and are kept apart here.

Legend:
ACHN WT, RCC cells = test: Cell viability in SDH-deficient/proficient isogenic pairs; format: cell-based; details: Homo sapiens, cancer cells, 72 hours
Experimental: (§1) The cells were grown in DMEM F12 supplemented with 1 mM Glutamine+3% FBS were treated with different concentrations of the indicated compounds. Cell viability was determined 72 hours later by CellTiter Glue reagent (Promega), the luminescence was measured with ClarioStar reader (BMG) and the EC50s were calculated by Prism. Murine SDHB-WT/KO, HRAS transformed isogenic pair (FIG. 12A); UOK269, Human Tumor-derived SDHB-deficient RCC in their WT counterpart with re-expression of SDHB (FIG. 12B); and ACHN, RCC cells, and their SDHB-KO (SDHB CRISPRed out) isogenic cells (FIG. 12C).

[1] = system: ACHN SDHB −/− (SDHB CRISPRed out); test: as above; format: cell-based; details: Homo sapiens, cancer cells, 72 hours
Experimental: as §1

UOK269 (SDHB-def.) RCC = test: as above; format: cell-based, Human; details: Homo sapiens, tumor-derived, 72 hours
Experimental: as §1

[2] = system: UOK269-WT (re-expression of SDHB); test: as above; format: cell-based, Human; details: Homo sapiens, tumor-derived, 72 hours
Experimental: as §1

[3] = system: 2-DeoxyGlucose phosphorylation in murine SDH-WT cells; test: 2 DG phosphorylation assay; format: cell-based; details: Mus musculus, 0.25 h, 15 min, LC-MS
Experimental: IC50 of compound 145 and GluT1 inhibitor […] in a 2 DG phosphorylation assay was done using murine SDH-WT cells. The cells were treated for 15 min with the indicated compound at different concentrations in the presence of 2 DG. 2 DG phosphorylation was determined by LC-MS analysis and the inhibition IC50 was determined by Prism software.

SDH-WT cells = test: Cellular / differential toxicity assay (CellTiter-Glo, 3 days); format: cell-based, murine; details: Mus musculus, 72 h
Method in brief: (§2)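 Isogenic SDHB-deficient (HRAS-transformed SDH-KO) and SDH-WT cells grown in DMEM-F12 with 1 mM glutamine and 3% FBS, plated with compound (10-point dilution from 10 uM to 0.0065 uM or lower) for 3 days at 37 °C, 5% CO2. Viability by CellTiter-Glo luminescence; EC50 calculated.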

[4] = system: SDH-KO-HRAS cells (SDHB-deficient); test: as above; format: cell-based, murine; details: for EC50: Mus musculus, 72 h; for differential toxicity, SDH-KO cells compared to SDH-WT cells: viability EC50s, Example 6
Method in brief: as §2

[5] = Plasma glucose levels in mice after oral administration; format: in vivo; details: 2 mg/Kg
Experimental: FIG. 8 depicts the glucose levels in mice plasma after oral administration of 2 mg/Kg of compound 111. Compound 111 at 2 mg/kg was orally administrated to mice. Blood samples were taken at different time points thereafter and Glucose level was determined.

[6] = system: Panc1 (Pancreatic cancer); test: Toxicity assay with or without rotenone; format: cell-based; details: Homo sapiens, PANC-1, 72 hours
Experimental: (§3) Toxicity assay: Cells were growing in 96 well plates in DMEM F12 with 17 mM glucose, 0.5 mM Sodium Pyruvate, 1 mM Glutamine and 3% FBS. The cells were treated with the indicated compounds (10 different concentrations) with or without 25 nM rotenone. Viability was determined after 72 hours of treatment using CellTiter Glo reagent (Promega). EC50 was calculated using Prism software.

MM.1S (Multiple myeloma) = test: Toxicity assay with or without rotenone; format: cell-based; details: Homo sapiens, MM1.S, 72 hours
Experimental: as §3

HCT116 (Colon cancer) = test: Toxicity assay with or without rotenone; format: cell-based; details: Homo sapiens, HCT-116, 72 hours
Experimental: as §3

[7] = system: MiaPaca2 (Pancreatic cancer); test: Toxicity assay with or without rotenone; format: cell-based; details: Homo sapiens, MIA PaCa-2, 72 hours
Experimental: as §3

[8] = system: MDA-MB-468 (Breast cancer); test: Toxicity assay with or without rotenone; format: cell-based; details: Homo sapiens, 72 hours
Experimental: as §3

[9] = Glucose levels and Maximum Tolerated Dose in mice at different diets; format: in vivo
Source text: Glucose Levels as Measured in Mice after Different Dosages of Compound 111 at Different Diets.

[10] = system: SDH-KO cells (SDH-deficient tumors); test: Tumor volume of SDH-KO cells vs. time in mice on ketogenic diet; format: in vivo; details: treated two weeks post-injection, prior to tumor formation
Source text: FIG. 10 depicts the tumor volume of SDH-KO cells vs. time in mice on ketogenic diet, treated for two weeks post-injection, but prior to tumor formation.

[11] = system: m+3 lactate secretion (glycolysis) in SDH-WT cells; test: Glycolysis inhibition (IC50 Lactate m+3); format: cell-based; details: 1 h, 25 mM 13C-glucose, one hour
Experimental: (§4) Glycolysis Inhibition (IC50 Lactate m+3)
(§5) Cell were plated in DMEM, 25 mM Glucose, 1 mM Pyruvate, 1 mM Glutamine and 10% Dialyzed serum in 96 well plates in triplicates. The day after the medium was replaced to fresh medium with 25 mM ^13C-glucose and treated with different concentrations of the compounds as indicated. One hour later the medium was collected and the level of m+3 lactate was determined by LC-MS. The IC50 of inhibition of m+3 lactate secretion into the medium was calculated with Prism.

[12] = system: m+3 lactate secretion (glycolysis) in SDH-KO cells; test: Glycolysis inhibition (IC50 Lactate m+3); format: cell-based; details: 1 h, 25 mM 13C-glucose, one hour
Experimental: as §4, §5

[13] = PK profile (plasma and brain concentration); format: in vivo
Experimental: FIG. 14 describes the pharmacokinetics of compound 332.
FIG. 14A depicts the Mean Plasma Concentration of Compound 332 after IP7, IV bolus1 and PO2 Dosing. FIG. 14B depicts the Mean Brain Concentration of Compound 332 after IP Dosing at 2.50 mg/kg and FIG. 14C depicts the Mean Brain Concentration of Compound 332 after IV bolus Dosing at 2.50 mg/kg.

[14] = toxicity, SDH-WT cells, 3 days, CellTiter-Glo, read-out: EC50 (uM) SDH-WT
[15] = toxicity, SDH-KO cells, 3 days, CellTiter-Glo, read-out: EC50 (uM) SDH-KO-HTAS-C17

In the case of `Cc1c(NC(=O)c2cc(C(N)=O)nc3cc(F)ccc23)c(C(F)(F)F)nn1Cc1ccc(C#N)cc1` [BAY-876, reference compound], the EC50 (ACHN WT, RCC cells) is reported as 24200 nM, the EC50 [1] is reported as 256 nM and the EC50 (UOK269 (SDHB-def.) RCC) is reported as 15 nM. It also gave an EC50 [2] of 5300 nM, an IC50 [3] of 21.6 nM and an EC50 (SDH-WT cells; Murine SDH-WT, transformed, 72 hours, Example 8, read-out: EC50) of 0.134 µM. The EC50 ([4]; Murine SDH-KO, transformed, 72 hours, Example 8, read-out: EC50) was 0.95 nM.

With `CC(=O)Nc1ccc(CCNc2ncnc3c2sc2nc4c(cc23)COC(C)(C)C4)cc1` [Compound 111] the “level of glucose in the plasma” value [5] was “increase”, the EC50 ([6]; Panc1, with 25 nM rotenone, read-out: EC50 (nM) with Rotenone) was 91 nM and the EC50 ([6]; Panc1, without rotenone, read-out: EC50) was 136000 nM. It also gave an EC50 (MM.1S (Multiple myeloma); with 25 nM rotenone, read-out: EC50 (nM) with Rotenone) of 52 nM, an EC50 (MM.1S (Multiple myeloma); without rotenone, read-out: EC50) of 79000 nM and an EC50 (HCT116 (Colon cancer); HCT116, with 25 nM rotenone, read-out: EC50 (nM) with Rotenone) of 510 nM. The EC50 (HCT116 (Colon cancer); HCT116, without rotenone, read-out: EC50) was 9700 nM, the EC50 ([7]; MiaPaca2, with 25 nM rotenone, read-out: EC50 (nM) with Rotenone) was 61 nM and the EC50 ([7]; MiaPaca2, without rotenone, read-out: EC50) was 37000 nM. The EC50 ([8]; MDA-MB-468, with 25 nM rotenone, read-out: EC50 (nM) with Rotenone) was 1400 nM, the EC50 ([8]; MDA-MB-468, without rotenone, read-out: EC50) was greater than 30000 nM and the EC50 (SDH-WT cells; [14]) was greater than 10 µM. For the same compound, the EC50 [4, 15] was less than 1000 nM, the “elevation in plasma glucose levels on ketogenic diet” value ([9]; ketogenic diet) was “delayed” and the “Maximum Tolerated Dose (MTD) on ketogenic diet” value ([9]; ketogenic diet vs other diet) was “doubled”. For the same compound, the “tolerability on ketogenic diet” value ([9]; ketogenic diet, two weeks of treatment) was “up to 4 mg/Kg” and the “tumor onset and growth (tumor volume vs. time)” value [10] was “delays tumor onset and growth”.

With `COCc1c2c(nc3sc4c(NCCc5ccc6[nH]cnc6c5)ncnc4c13)CC(C)(C)OC2` [Compound 308, N-(2-(1H-Benzo[d]imidazol-5-yl)ethyl)-11-(methoxymethyl)-8,8-dimethyl-7,10-dihydro-8H-pyrano[3″,4″:5′,6′]pyrido[3′,2′:4,5]thieno[3,2-d]pyrimidin-4-amine] the IC50 [11] was 0.15 nM, the IC50 [12] was 0.03 nM and the EC50 (SDH-WT cells; SDH-WT cells, 72 hours, Example 7, read-out: EC50 Tox) was 2.17 µM. It also gave an EC50 (SDH-WT cells; [14]) of 1 to 3 µM, an EC50 ([4]; SDH-KO cells, 72 hours, Example 7, read-out: EC50 Tox) of 0.004 nM and an EC50 [4, 15] of less than 1000 nM. For the same compound, the “differential effect between SDH-WT and KO cells (EC50 Tox)” value ([4]; cell viability, Example 7) was > 500,000 folds.

For `CC(C)COCc1c2c(nc3sc4c(NCCc5ccc6[nH]cnc6c5)ncnc4c13)CC(C)(C)OC2` [Compound 323, N-(2-(1H-Benzo[d]imidazol-5-yl)ethyl)-11-(isobutoxymethyl)-8,8-dimethyl-7,10-dihydro-8H-pyrano[3″,4″:5′,6′]pyrido[3′,2′:4,5]thieno[3,2-d]pyrimidin-4-amine], the EC50 (SDH-WT cells; [14]) was less than 1 µM and the EC50 [4, 15] was less than 1000 nM.

With `CC1(C)Cc2nc3sc4c(NCCc5ccc6[nH]cnc6c5)ncnc4c3c(COC3CCOCC3)c2CO1` [Compound 324, N-(2-(1H-Benzo[d]imidazol-5-yl)ethyl)-8,8-dimethyl-11-(((tetrahydro-2H-pyran-4-yl)oxy)methyl)-7,10-dihydro-8H-pyrano[3″,4″:5′,6′]pyrido[3′,2′:4,5]thieno[3,2-d]pyrimidin-4-amine] the EC50 (SDH-WT cells; [14]) was less than 1 µM and the EC50 [4, 15] was less than 1000 nM.

`CC1(C)Cc2nc3sc4c(NCCc5ccc6[nH]cnc6c5)ncnc4c3c(COC3CCCCC3)c2CO1` [Compound 327, N-(2-(1H-Benzo[d]imidazol-5-yl)ethyl)-11-((cyclohexyloxy)methyl)-8,8-dimethyl-7,10-dihydro-8H-pyrano[3″,4″:5′,6′]pyrido[3′,2′:4,5]thieno[3,2-d]pyrimidin-4-amine] gave an EC50 (SDH-WT cells; [14]) of less than 1 µM and an EC50 [4, 15] of less than 1000 nM.

For `CN1CCC(OCc2c3c(nc4sc5c(NCCc6ccc7[nH]cnc7c6)ncnc5c24)CC(C)(C)OC3)CC1` [Compound 328, N-(2-(1H-Benzo[d]imidazol-5-yl)ethyl)-8,8-dimethyl-11-(((1-methylpiperidin-4-yl)oxy)methyl)-7,10-dihydro-8H-pyrano[3″,4″:5′,6′]pyrido[3′,2′:4,5]thieno[3,2-d]pyrimidin-4-amine], the EC50 (SDH-WT cells; [14]) was 3 to 10 µM and the EC50 [4, 15] was 3000 to 10000 nM.

Compound `CC1(C)Cc2nc3oc4c(NCCc5ccc6[nH]cnc6c5)ncnc4c3cc2CO1` [Compound 329] has an EC50 (SDH-WT cells; [14]) of less than 1 µM and an EC50 [4, 15] of less than 1000 nM.

With `COCCOCCOCCOCCN(C)Cc1c2c(nc3sc4c(NCCc5ccc6[nH]cnc6c5)ncnc4c13)CC(C)(C)OC2` [Compound 330, N-(2-(1H-Benzo[d]imidazol-5-yl)ethyl)-8,8-dimethyl-11-(2-methyl-5,8,11,14-tetraoxa-2-azapentadecyl)-7,10-dihydro-8H-pyrano[3″,4″:5′,6′]pyrido[3′,2′:4,5]thieno[3,2-d]pyrimidin-4-amine] the EC50 (SDH-WT cells; [14]) was 3 to 10 µM, the EC50 [4, 15] was less than 1000 nM and the “differential toxicity, SDH-KO cells compared to SDH-WT cells” value (from here on “differential toxicity, SDH-KO cells”) ([4]; 72 hours) was greater than 56.

In the case of `COCCOCCOCCN(C)Cc1c2c(nc3sc4c(NCCc5ccc6[nH]cnc6c5)ncnc4c13)CC(C)(C)OC2` [Compound 331, N-(2-(1H-Benzo[d]imidazol-5-yl)ethyl)-8,8-dimethyl-11-(2-methyl-5,8,11-trioxa-2-azadodecyl)-7,10-dihydro-8H-pyrano[3″,4″:5′,6′]pyrido[3′,2′:4,5]thieno[3,2-d]pyrimidin-4-amine], the EC50 (SDH-WT cells; [14]) is reported as 3 to 10 µM, the EC50 [4, 15] is reported as less than 1000 nM and the “differential toxicity, SDH-KO cells” value ([4]; 72 hours) is reported as greater than 42.

With `COCCOCc1c2c(nc3sc4c(NCCc5ccc6[nH]cnc6c5)ncnc4c13)CC(C)(C)OC2` [Compound 332] the EC50 (SDH-WT cells; [14]) was 1 to 3 µM, the EC50 [4, 15] was less than 1000 nM and the “differential toxicity, SDH-KO cells” value ([4]; 72 hours) was 235. The oral bioavailability ([13]; PO dosing vs IV bolus, plasma) was “low” and the brain penetration ([13]; brain concentration after IP and IV bolus dosing at 2.50 mg/kg) was “brain penetrant”.

Compound `CC1(C)Cc2nc3sc4c(NCCc5ccc6[nH]cnc6c5)ncnc4c3c(COC3CCCC3)c2CO1` [Compound 333] has an EC50 (SDH-WT cells; [14]) of 1 to 3 µM and an EC50 [4, 15] of less than 1000 nM.

Work on `CN(C)Cc1c2c(nc3sc4c(NCCc5ccc6[nH]cnc6c5)ncnc4c13)CC(C)(C)OC2` [Compound 334] yielded an EC50 (SDH-WT cells; [14]) of 3 to 10 µM and an EC50 [4, 15] of less than 1000 nM.

Compound `COCCCCc1c2c(nc3sc4c(NCCc5ccc6[nH]cnc6c5)ncnc4c13)CC(C)(C)OC2` [Compound 335] has an EC50 (SDH-WT cells; [14]) of 3 to 10 µM and an EC50 [4, 15] of less than 1000 nM.
